Assay results reported in US7425631B2 (Amgen Inc., priority 2003, dated 2008).

Each compound was assayed against T1, human B1 receptor (Homo sapiens, UniProt P46663) (assay: In vitro assay of human B1 receptor function using calcium flux (aequorin luminescence)). Settings: CHO D-/hB1/Aequorin cells, agonist 20 nM des-Arg10-Kallidin (EC80); read-out: binding IC50's to hB1 receptor function.
T1 construct: expressed in transfected cells
T1 sequence (P46663 1-353): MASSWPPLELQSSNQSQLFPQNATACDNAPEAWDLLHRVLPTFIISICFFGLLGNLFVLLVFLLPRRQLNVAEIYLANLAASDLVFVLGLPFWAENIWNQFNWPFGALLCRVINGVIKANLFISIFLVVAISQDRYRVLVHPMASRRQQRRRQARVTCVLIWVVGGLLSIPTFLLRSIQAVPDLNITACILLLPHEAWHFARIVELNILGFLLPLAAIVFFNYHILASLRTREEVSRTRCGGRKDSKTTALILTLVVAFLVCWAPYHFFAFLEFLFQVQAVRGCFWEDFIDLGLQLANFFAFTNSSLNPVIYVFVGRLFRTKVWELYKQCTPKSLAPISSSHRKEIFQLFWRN
Type: cell-based
Procedure: Activation of the Gq linked B1 receptor results in an increase in intracellular calcium. […] Aequorin is a 21-kDa photoprotein that forms a bioluminescent complex when linked to the chromophore cofactor coelenterazine.
Following coelenterazine incubation, an automated flash-luminometer platform was used to dispense the B1 antagonist compounds (dissolved in DMSO and diluted with buffer to the desired concentration (final DMSO concentration <1% DMSO)) to the cell plate, a CCD camera situated underneath the cell plate took 12 images of the cell plate at 5 second intervals to determine if there was any agonist activity with the compounds. The hB1 agonist, des-Arg10-Kallidin, was added to the cell plate and another 12 images were recorded to determine the IC50 of the antagonist(s).

Row | IC50 | Compound
1 | < 10 nM | O=C(C[C@@H](NS(=O)(=O)c1ccc(Cl)c(Cl)c1)c1ccccc1)NC1CCOc2cc(CN3CCCCC3)ccc21 (some centres unmarked) [Example 1f, 3-(3,4-Dichloro-benzenesulfonylamino)-3-phenyl-N-(7-piperidin-1-ylmethyl-chroman-4-yl)-propionamide]
2 | < 10 nM | O=C(C[C@@H](NS(=O)(=O)c1ccc2ccccc2c1)c1ccccc1)NC1CCc2cc(CN3CCCCC3)ccc21 (some centres unmarked) [Example 5a, 3-(Naphthalen-2-yl-sulfonylamino)-3-phenyl-N-(5-piperidin-1-ylmethyl-indan-1-yl)-propionamide]
3 | < 10 nM | O=C(C[C@@H](NS(=O)(=O)c1cccc(C(F)(F)F)c1)c1ccc(F)cc1)N[C@@H]1CCCc2cc(CN3CCCC3)ccc21 [o, (3R)-3-(4-fluorophenyl)-N-((1R)-6-(1-pyrrolidinylmethyl)-1,2,3,4-tetrahydro-1-naphthalenyl)-3-(((3-(trifluoromethyl)phenyl)sulfonyl)-amino)propanamide]
4 | < 10 nM | O=C(C[C@@H](NS(=O)(=O)c1cccc(C(F)(F)F)c1)c1ccccc1)N[C@@H]1CCCc2cc(CN3CCC(F)(F)CC3)ccc21 [t, (3R)-N-((1R)-6-((4,4-difluoro-1-piperidinyl)methyl)-1,2,3,4-tetrahydro-1-naphthalenyl)-3-phenyl-3-(((3-(trifluoromethyl)phenyl)-sulfonyl)amino)propanamide]

Each compound was assayed against T2, human bradykinin B1 receptor (Homo sapiens, UniProt P46663) (assay: Radioligand binding assay for human B1 bradykinin receptor ([3H]des-arg10 kallidin)). Settings: membranes of CHO cells expressing human B1 receptor; read-out: binding Ki's to the hB1 receptor.
T2 construct: expressed in transfected cells; host or cells: CHO-d-AQN cells (membranes prepared in-house)
T2 sequence (P46663 1-353): T1 sequence (P46663 1-353)
Procedure: Preparation of membranes expressing human B1 and human B2 bradykinin receptor. Membranes were prepared from CHO-d^−AQN cells stably transfected with human bradykinin B1 receptor cDNA. For large-scale production of membranes, cells were grown in 100 L suspension culture to 1.0E8 cells/mL then harvested using the Viafuge at continuous centrifugation of 1000 g. For pilot studies, cells were grown in 2 L spinner culture and harvested by centrifugation (1900 g, 10 min, 4° C.). […] The resulting cell lysate was centrifuged (1900 g, 10 min, 4° C.), and the crude particulate fraction isolated by centrifugation (142,000 g, 1 h, 4° C.) of the low-speed supernatant. The resulting pellet was resuspended in ⅓ the original lysis buffer volume, homogenized, and recentrifuged as above. The membrane pellet was resuspended by homogenization in storage buffer (25 mM HEPES, pH 7.4, 3 mM MgCl2, 10% (w/v) sucrose and Complete Protease Inhibitor tablets (EDTA-free)). Single-use aliquots were made and flash-frozen in liquid N2 prior to storage at −80° C.
Radioligand Binding Assay for human B1 and human B2 bradykinin receptor. […] Membranes (50 μL) were added last. […] Nonspecific binding was defined with 2 μM des-Arg^10Leu^9 kallidin. […] The assay mixture was incubated with shaking for 1 hr at RT and then filtered through GF/C plates presoaked in 0.5% polyethyleneimine (Unifilter; Perkin Elmer Life Sciences) using a Filtermate 96-well harvester (Perkin Elmer Life Sciences). […] The plates were sealed and activity read on Topcount (Perkin Elmer Life Sciences) using a count time of 3 min per channel.
Data analysis. Data was analyzed in XLFit with the four-parameter logistic y=A+((B-A)/(1+((C/x)^D))) and fit with the Levenburg-Marquardt algorithm. Raw cpm were converted to percent of control values prior to analysis (POC=((compound cpm−nonspecfic cpm)/(no-compound cpm−nonspecific cpm)*100)). Ki values were determined from the IC50 using the Cheng-Prusoff equation and Kd values determined by direct saturation binding of the radioligands.

Row | Ki | Compound
5 | < 100 nM | O=C(C[C@@H](NS(=O)(=O)c1cc(Cl)cc(Cl)c1)c1ccccc1)NC1CCOc2cc(CN3CCCCC3)ccc21 (stereo in doubt) [Example 1h, 3-(3,5-Dichloro-benzenesulfonylamino)-3-phenyl-N-(7-piperidin-1-ylmethyl-chroman-4-yl)-propionamide]
6 | < 100 nM | O=C(C[C@@H](NS(=O)(=O)c1ccc2ccccc2c1)c1ccccc1)NC1CCOc2cc(CN3CCOCC3)ccc21 (stereo in doubt) [Example 3j, N-(7-Morpholin-4-ylmethyl-chroman-4-yl)-3-(naphthalen-2-yl-sulfonylamino)-3-phenyl-propionamide]
7 | < 100 nM | CN1c2cc(CN3CCCCC3)ccc2C(NC(=O)C[C@@H](NS(=O)(=O)c2ccc3ccccc3c2)c2ccccc2)CS1(=O)=O (stereo in doubt) [Example 13, 3-(Naphthalen-2-yl-sulfonylamino)-N-(1-methyl-2,2-dioxo-7-piperidin-1-ylmethyl-1,2,3,4-tetrahydro-2λ^6-benzo[c][1,2]thiazin-4-yl)-3-phenyl-propionamide]
8 | < 100 nM | CN1CCN(Cc2ccc3c(c2)OCCC3NC(=O)C[C@@H](NS(=O)(=O)c2ccc3ccccc3c2)c2ccccc2)CC1 (some centres unmarked) [Example 1a, N-[7-(4-Methyl-piperazin-1-ylmethyl)-chroman-4-yl]-3-(naphthyl-2-ylsulfonylamino)-3-phenyl-propionamide]
9 | < 100 nM | O=C(C[C@@H](NS(=O)(=O)c1ccc2ccccc2c1)c1ccccc1)NC1CCOc2cc(CN3CCCC3)ccc21 (some centres unmarked) [Example 1d, 3-(Naphthalen-2-ylsulfonylamino)-3-phenyl-N-(7-pyrrolidin-1-ylmethyl-chroman-4-yl)-propionamide]
10 | < 100 nM | O=C(C[C@@H](NS(=O)(=O)c1ccc(Cl)c(Cl)c1)c1ccccc1)NC1CCOc2cc(CN3CCCCC3)ccc21 (some centres unmarked) [Example 1f, 3-(3,4-Dichloro-benzenesulfonylamino)-3-phenyl-N-(7-piperidin-1-ylmethyl-chroman-4-yl)-propionamide]
11 | < 100 nM | CC(C)NCc1ccc2c(c1)OCCC2NC(=O)C[C@@H](NS(=O)(=O)c1ccc2ccccc2c1)c1ccccc1 (some centres unmarked) [Example 3, N-[7-(Isopropylamino-methyl)-chroman-4-yl]-3-(naphthalen-2-ylsulfonylamino)-3-phenyl-propionamide]
12 | < 100 nM | CC(C)N(C)Cc1ccc2c(c1)OCCC2NC(=O)C[C@@H](NS(=O)(=O)c1ccc2ccccc2c1)c1ccccc1 (some centres unmarked) [Example 3b]
13 | < 100 nM | CCN(Cc1ccc2c(c1)OCCC2NC(=O)C[C@@H](NS(=O)(=O)c1ccc2ccccc2c1)c1ccccc1)C(C)(C)C (some centres unmarked) [Example 3f, N-{7-[(tert-Butyl-ethyl-amino)-methyl]-chroman-4-yl}-3-(naphthalen-2-yl-sulfonylamino)-3-phenyl-propionamide]
14 | < 100 nM | C[C@@H]1CC[C@@H](C)N1Cc1ccc2c(c1)OCCC2NC(=O)C[C@@H](NS(=O)(=O)c1ccc2ccccc2c1)c1ccccc1 (stereo partly drawn) [Example 3h, N-[7-(2R, 5R-Dimethyl-pyrrolidin-1-ylmethyl)-chroman-4-yl]-3-(naphthalen-2-yl-sulfonylamino)-3-phenyl-propionamide]
15 | < 100 nM | CCN(CC)Cc1ccc2c(c1)OCCC2NC(=O)C[C@@H](NS(=O)(=O)c1ccc2ccccc2c1)c1ccccc1 (some centres unmarked) [Example 3l, N-(7-Diethylaminomethyl-chroman-4-yl)-3-(naphthalen-2-yl-sulfonylamino)-3-phenyl-propionamide]
16 | < 100 nM | O=C(C[C@@H](NS(=O)(=O)c1ccc2ccccc2c1)c1ccccc1)NC1CCc2c(CN3CCCCC3)cccc21 (some centres unmarked) [Example 4a, 3-(Naphthalen-2-yl-sulfonylamino)-3-phenyl-N-(4-piperidin-1-ylmethyl-indan-1-yl)-propionamide]
17 | < 100 nM | O=C(C[C@@H](NS(=O)(=O)c1ccc2ccccc2c1)c1ccccc1)NC1CCc2cc(CN3CCCCC3)ccc21 (some centres unmarked) [Example 5a, 3-(Naphthalen-2-yl-sulfonylamino)-3-phenyl-N-(5-piperidin-1-ylmethyl-indan-1-yl)-propionamide]
